Data set [1] concerns Colo 205. The data set can be described thus: Cytotoxic MTT assay, 24 h. Particulars: Homo sapiens, COLO 205, 24 h, read-out: Cytotoxic activity IC50 Colo 205 (A) Mean.
Experimental: (§2) Cell Line Cultures: The human colon adenocarcinoma cell lines, Colo 205 (ATCC-CCL-222) doxorubicin-sensitive parent and Colo320/MDR-LRP (ATCC-CCL-220.1) doxorubicin resistant expressing ABCB1, were purchased from LGC Promochem (Teddington, UK). The cells were cultured in RPMI-1640 medium supplemented with 10% heat-inactivated fetal bovine serum (FBS), 2 mM L-glutamine, 1 mM Na-pyruvate, 100 mM HEPES. The MRC-5 (ATCC CCL-171) human embryonic lung fibroblast cell line and the hormone-responsive breast cancer cell line MCF-7 (ATCC HTB-22) were purchased from Sigma-Aldrich (Merck KGaA, Darmstadt, Germany). The MCF-7 and MRC-5 cells were cultured in Eagle’s Minimal Essential Medium (EMEM) containing 4.5 g/L of glucose and supplemented with a non-essential amino acid mixture, a selection of vitamins, and 10% FBS. The cell lines were incubated at 37 °C, 5% CO2, and 95% air atmosphere. The cells were detached with Trypsin-Versene (EDTA) solution for 5 min at 37 °C. The human non-small cell lung cancer cell line A549 was kindly provided by Brigitte Marian (Institute of Cancer Research, Department of Medicine I, Medical University of Vienna, Austria). A549 cells were grown in Eagle’s Minimal Essential Medium (EMEM) supplemented with 10% heat-inactivated fetal bovine serum.
(§3) Assay for Cytotoxic Effect: The effects of increasing concentrations of the compounds on cell growth were tested in 96-well flat-bottomed microtiter plates, as described for the antiproliferative assay, using 1 × 10^4 cells/well. The culture plates were incubated at 37 °C for 24 h; at the end of the incubation period, 20 μL of MTT solution (from a 5 mg/mL stock solution) was added to each well. After incubation at 37 °C for 4 h, 100 μL of sodium dodecyl sulfate (SDS) solution (10% SDS in 0.01 M HCl) was added to each well, and the plates were further incubated at 37 °C overnight. Cell growth was determined by measuring the optical density (OD) at 540 nm (ref 630 nm) with a Multiscan EX ELISA reader (Thermo Labsystems, Cheshire, WA, USA).
(§4) Sample preparation: The compounds were dissolved in DMSO to achieve the final concentration of 5 mM. The starting concentration of the compounds was 100 µM and 2-fold serial dilutions were prepared for the antiproliferative and cytotoxic assays. The following concentrations were used: 100-50-25-12.5-6.25-3.125-1.56-0.78-0.39-0.195 µM.
The test system of data set [2] is A549. The data set can be described thus: Antiproliferative MTT assay, 72 h. Particulars: Homo sapiens, 6 × 10^3 cells/well, non-small cell lung cancer. In kind it is cell-based. The method, then: (§1) Antiproliferative Assays: The antiproliferative effect of the compounds was tested in decreasing serial dilutions of compounds (starting with 100 µM, then two-fold serial dilution) on human cell lines (Colo 205, Colo 320, MCF-7, A549, and MRC-5) in 96-well flat-bottomed microtiter plates. Firstly, the compounds were diluted in 100 µL of the medium, and then, 6 × 10^3 cells (Colo 205, Colo 320) in 100 µL of RPMI medium were added to each well, excluding the medium control wells. The adherent MCF-7, A549, and MRC-5 cells (6 × 10^3 cells/well) were seeded in EMEM medium for at least 4 h before the assay. The two-fold serial dilutions of the compounds were made in a separate plate (100–0.19 μM) and then transferred to the plates containing the adherent-corresponding cell line. […] The percentage of inhibition of cell growth was determined according to Equation (1), and expressed as IC50 values, defined as the concentration that induces 50% growth inhibition. IC50 values and the standard deviation (SD) of triplicate experiments were calculated using GraphPad Prism 5 software for Windows. Doxorubicin (2 mg/mL, Teva Pharmaceuticals, Budapest, Hungary) was used as a positive control and the vehicle DMSO as the negative control (Table 3). (1) […][ODsample−ODmedium control/ODcell control−ODmedium control]×100

Data set [3] has as its system MRC-5. The data set can be described thus: Antiproliferative MTT assay, 72 h. In kind it is cell-based. Particulars: Homo sapiens, MRC5, 6 × 10^3 cells/well, normal embryonic lung fibroblast. The protocol:
as §1

For data set [4], the system named is Colo 320. The data set can be described thus: Antiproliferative MTT assay, 72 h. It counts as cell-based. The conditions noted are these: Homo sapiens, 6 × 10^3 cells/well, resistant colon adenocarcinoma. The method, then: as §1
Data set [5] relates to Colo 320. Description: Cytotoxic MTT assay, 24 h. The conditions noted are these: for IC50: Homo sapiens, COLO 320, 24 h, read-out: Cytotoxic activity IC50 Colo 320 (B) Mean; for RR (relative resistance ratio) (B/A): IC50 resistant (Colo 320)/IC50 sensitive (Colo 205), cytotoxic assay.
Experimental: as §2, §3, §4
Data set [6] can be described thus: Cytotoxic MTT assay, 24 h. Particulars: human, MRC-5 embryonic lung fibroblast cells.
Experimental: as §2, §3, §4
In data set [7] the test system is Colo 205. The data set can be described thus: Antiproliferative MTT assay, 72 h. It counts as cell-based, human. Particulars: for IC50: MTT, 72 h, 6 × 10^3 cells/well, sensitive colon adenocarcinoma; for Selectivity index (SI), Colo 205: antiproliferative assay, Colo 205 versus non-cancerous MRC-5. The protocol:
as §1

Data set [8] relates to MCF-7. The data set can be described thus: Antiproliferative MTT assay, 72 h. In kind it is cell-based, human. Particulars: for IC50: Homo sapiens, MCF7, MTT, 72 h, 6 × 10^3 cells/well, breast cancer; for Selectivity index (SI), MCF-7: antiproliferative assay, MCF-7 versus non-cancerous MRC-5. The protocol: as §1
Data set [9] relates to A549. Description: Cytotoxic MTT assay, 24 h. The conditions noted are these: Homo sapiens, A549, 24 h, read-out: Cytotoxic activity IC50 A549 Mean.
Experimental: as §2, §3, §4
The test system of data set [10] is MCF-7. The data set can be described thus: Cytotoxic MTT assay, 24 h. Particulars: Homo sapiens, MCF7, 24 h, read-out: Cytotoxic activity IC50 MCF-7 Mean.
Experimental: as §2, §3, §4
For data set [11], the system named is MCF-7.
Experimental: as §2, §3, §4
The nature of data set [12]: in vitro. The conditions noted are these: human.
Experimental: as §2, §3, §4
The subject of data set [13] is treated cancer cells. Description: Antiproliferative MTT assay, summary over cancer cell lines. It counts as cell-based, human. Particulars: versus MRC-5. The method, then:
as §1

Data set [14] relates to Colo 320 cells. On the set-up: method as in PMID 35293752. The conditions noted are these: checkerboard method; cited from earlier work.
Data set [15] has as its system sensitive (Colo 205) colon adenocarcinoma cells. Also on record: method as in PMID 35293752. The conditions noted are these: read-out: Cytotoxic activity IC50 Colo 205; cited from earlier work.
The subject of data set [16] is resistant colon adenocarcinoma cells (Colo 320). On the set-up: method as in PMID 35293752. The conditions noted are these: read-out: Cytotoxic activity IC50 Colo 320; cited from earlier work.
Data set [17] relates to COX-2. On the set-up: method as in PMID 36279964. The conditions noted are these: read-out: IC50 against COX-2; cited from earlier work.
For data set [18], the system named is 5-LOX. On the set-up: method as in PMID 36279964. The conditions noted are these: read-out: IC50 against 5-LOX; cited from earlier work.
Data set [19] concerns p-glycoprotein (ABCB1) efflux pump. Also on record: method as in PMID 35293752. Particulars: resistant Colo 320 cells; cited from earlier work.

Consider `COc1cccc2c1C(=O)c1c(O)c3c(c(O)c1C2=O)C[C@@](O)(C(=O)CO)C[C@@H]3O[C@H]1C[C@H](N)[C@H](O)[C@H](C)O1` [Dox, doxorubicin, reference compound], for which the IC50 in data set [1] worked out at 3.32 µM; in data set [2], 1.04 µM; in [3], 0.52 µM; in data set [4], 0.25 µM; in [5], 12 µM; in data set [7] (Homo sapiens, COLO 205, 72 h), 0.0617 µM. Moreover, the IC50 in data set [8] stood at 0.155 µM; in data set [9], 10.2 µM; in data set [10], 5.73 µM. Moreover, in [5], the “RR (relative resistance ratio) (B/A)” value stood at 3.60. Also, the IC50 at 24 h in data set [6] was 3.6 µM.
On to `COC(=O)C[C@@](C)(O)CC(=O)O[C@@H]1C[C@]2(C)C3=C(C(=O)C[C@H]2C(C)(C)[C@H]1OC(C)=O)[C@]1(C)CC[C@H]([C@H](C)CCC(=O)C(C)(C)O)[C@@]1(C)CC3=O` [Compound 4, pholiol O], for which the “Cytotoxic activity IC50 MCF-7 Mean” value in data set [11] is “did not show a cytotoxic effect”. Besides, the IC50 in data set [1] is 31.5 µM; in [2], 51.5 µM; in data set [3], 42.9 µM; in data set [4], 42.1 µM; in [5], 91.5 µM; in data set [7] (Homo sapiens, COLO 205, 72 h) it was 23.3 µM. For the same molecule, the IC50 in data set [7] was 23.4 µM; in data set [8] it was 9.95 µM; in data set [9], 56.9 µM; in data set [10], greater than 100 µM. Also, the “RR (relative resistance ratio) (B/A)” value in [5] is on record as 2.90. Further, the half-inhibitory concentration (IC50) at 24 h in [12] was determined as 58 µM. The “Selectivity index (SI), Colo 205” value in data set [7] came to 1.8. Further, the “Selectivity index (SI), MCF-7” value in [8] is recorded as 4.3.
As for `CC(=O)O[C@H]1[C@H](OC(=O)C[C@](C)(O)CC(=O)O)C[C@]2(C)C3=CC[C@]4(C)[C@@H]([C@H](C)CCC(=O)C(C)(C)O)CC[C@@]4(C)C3=CC[C@H]2C1(C)C` [Compound 6, pholiol Q], the IC50 in [1] was 56.1 µM; in data set [2], 51.2 µM; in data set [3], greater than 100 µM; in data set [4], 69.2 µM; in data set [5] it was 34.7 µM; in [7] (Homo sapiens, COLO 205, 72 h) it was 50 µM. For the same molecule, the IC50 in data set [8] is 46.3 µM; in data set [9] it was 85.9 µM; in [10], 43.8 µM. Besides, the “RR (relative resistance ratio) (B/A)” value in data set [5] is 0.62. Also, the “Selectivity to cancerous cell lines over normal cells” value (“Selectivity to cancerous cell lines” below) in [13] is recorded as “did not display selectivity”. In [12], the concentration for half-maximal inhibition (IC50) at 24 h is greater than 100 µM.
Turning to `COC(=O)CC(C)(O)CC(=O)OC1C(O)CC2(C)C3=C(C(=O)CC2C1(C)C)C1(C)CCC(C(C)CCC(=O)C(C)(C)O)C1(C)CC3` (stereo not drawn) [Compound 1, pholiol L], the concentration for half-maximal inhibition (IC50) in data set [1] was determined as 40.3 µM; in data set [2], 53.7 µM; in [3], 70.9 µM; in [4] it was 28.1 µM; in [5], 33.9 µM; in data set [7] (Homo sapiens, COLO 205, 72 h), 32.4 µM. Besides, the IC50 in data set [8] worked out at 21.7 µM; in data set [9], 93.6 µM; in data set [10], 43.7 µM. The “RR (relative resistance ratio) (B/A)” value in data set [5] is recorded as 0.84. For the same molecule, the “Selectivity to cancerous cell lines” value in data set [13] is given as “did not display selectivity”. Also, the IC50 at 24 h in data set [12] stood at 66.1 µM.
`COC(=O)C[C@@](C)(O)CC(=O)O[C@@H]1C[C@]2(C)C3=C(CC[C@H]2C(C)(C)[C@H]1OC(C)=O)[C@]1(C)CC[C@H]([C@H](C)CCC(=O)C(C)(C)O)[C@@]1(C)[C@H](O)C3` [pholiol D]: the “Drug interaction with doxorubicin” value in [14] was “interacted in a synergistic manner”.
For the molecule `CC(C)[C@@H](C)/C=C/[C@@H](C)[C@H]1CC[C@H]2C3=CC=C4C[C@@H](O)CC[C@]4(C)[C@H]3CC[C@]12C` [Ergosterol], the values for the IC50 in [15] and in [16] were 4.9 µM and 6.5 µM, respectively.
Take `COC(=O)C[C@@](C)(O)CC(=O)O[C@@H]1C[C@]2(C)C3=C(C(=O)C[C@H]2C(C)(C)[C@H]1OC(C)=O)[C@]1(C)CC[C@H]([C@H](C)CCC(=O)O)[C@@]1(C)CC3` [Compound 8, pholiol S]: the half-inhibitory concentration (IC50) is 57.5 µM in [1]; 89.8 µM in data set [2]; greater than 100 µM in data set [3]; 68.5 µM in data set [4]; 57.5 µM in data set [5]; 59.9 µM in data set [7] (Homo sapiens, COLO 205, 72 h). The figures for the IC50 in data set [8], in [9] and in data set [10] were 35.3 µM, 83.7 µM and 43 µM, respectively. Also, in [5], the “RR (relative resistance ratio) (B/A)” value was found to be 1.0. Besides, the “Selectivity to cancerous cell lines” value in data set [13] was “did not display selectivity”. In [12], this molecule returned a half-maximal inhibitory concentration (IC50) at 24 h of 55.3 µM.
Consider Pholiol F, for which the half-inhibitory concentration (IC50) is 440 µM in data set [17] and 194 µM in [18].
For the molecule pholiol A, the “p-glycoprotein (ABCB1) efflux pump inhibitory activity” value in data set [19] is listed as “inhibitory activity was found”.
For the molecule `COC(=O)CC(C)(O)CC(=O)OC1CC2(C)C3=C(C(=O)CC2C(C)(C)C1OC(C)=O)C1(C)CCC(C(C)CCC(=O)C(C)(C)O)C1(C)CC3O` (stereo not drawn) [Compound 2, pholiol M], the “Cytotoxic activity IC50 MCF-7 Mean” value in [11] is recorded as “did not show a cytotoxic effect”. Besides, the IC50 in data set [1] is 35.9 µM; in data set [2], greater than 100 µM; in data set [3], greater than 100 µM; in data set [4], 32.5 µM; in [5], 67.2 µM; in [7] (Homo sapiens, COLO 205, 72 h), 23.9 µM. Also, the IC50 is 2.48 µM in [8], 58.1 µM in data set [9] and greater than 100 µM in data set [10]. Further, the “RR (relative resistance ratio) (B/A)” value in [5] is reported as 1.87. The molecule also yielded an IC50 at 24 h in data set [12] greater than 100 µM. Also, in data set [7], the “Selectivity index (SI), Colo 205” value is given as greater than 4.18. Moreover, the “Selectivity index (SI), MCF-7” value in [8] is on record as greater than 40.
Take `COC(=O)C[C@@](C)(O)CC(=O)O[C@@H]1C[C@]2(C)C3=C(C(=O)C[C@H]2C(C)(C)[C@H]1OC(C)=O)[C@]1(C)CC[C@H]([C@H](C)CCC(=O)C(C)(C)O)[C@@]1(C)CC3` [pholiol B]: the “Drug interaction with doxorubicin” value in data set [14] was “interacted in a synergistic manner”. Also, the “p-glycoprotein (ABCB1) efflux pump inhibitory activity” value in [19] was “inhibitory activity was found”.

Values taken from publication PMC9862111, “Isolation of the Lanostane Triterpenes Pholiols L–S from Pholiota populnea and Evaluation of Their Antiproliferative and Cytotoxic Activities” (Pharmaceuticals, 2023).
